One assay addresses ERβ (Homo sapiens, UniProt Q92731). In words: ERβ reporter (luciferase) transactivation assay in transfected HEK293 cells. The class given is cell-based. More on the design: expressed in transfected cells; host or cells: HEK293. As to conditions: for ERβ receptor activation relative to 10 nM E2 corresponding 100: sample concentration 10 μM, 24 hours, mean of at least three independent transfections; for activation at 10 µM: HEK293, 24 h, read-out: ERβ receptor activation relative to 10 nM E2 corresponding 100, sample concentration 10 μM, mean of at least three independent transfections. The method, then: (§1) Determination of the Estrogen Activity of the Compounds: Cell Culture, Transfection and Reporter Assays
(§2) All other reagents were of reagent grade from Sigma or Fluka. One day before transfection, HEK293 cells were seeded in 48-well plates (70×10^3 cells per well) in phenol-free Dulbecco's modified Eagle medium supplemented with 5% delipidated fetal bovine serum (Sigma) and antibiotics. After a medium change, the cells were transfected for 4 hours with 5 ng ERα or ERβ expression vector, 75 ng reporter plasmid pERE2TATA-LUC and 20 ng control plasmid pCMVβ by the calcium phosphate method. After transfection, the cells received fresh medium containing either vehicle (0.1% v/v) or test compound (10 μM). After 24 hours, the cells were washed, lysed and luciferase and β-galactosidase activities were determined from 20 μl of lysates with the Victor^2TM reader (PerkinElmer Wallac, Turku, Finland). […] The data are means ±SEM of at least three independent transfections.

The next assay concerns the target T1, ERα (Homo sapiens, UniProt P03372).
T1 sequence (P03372 1-595): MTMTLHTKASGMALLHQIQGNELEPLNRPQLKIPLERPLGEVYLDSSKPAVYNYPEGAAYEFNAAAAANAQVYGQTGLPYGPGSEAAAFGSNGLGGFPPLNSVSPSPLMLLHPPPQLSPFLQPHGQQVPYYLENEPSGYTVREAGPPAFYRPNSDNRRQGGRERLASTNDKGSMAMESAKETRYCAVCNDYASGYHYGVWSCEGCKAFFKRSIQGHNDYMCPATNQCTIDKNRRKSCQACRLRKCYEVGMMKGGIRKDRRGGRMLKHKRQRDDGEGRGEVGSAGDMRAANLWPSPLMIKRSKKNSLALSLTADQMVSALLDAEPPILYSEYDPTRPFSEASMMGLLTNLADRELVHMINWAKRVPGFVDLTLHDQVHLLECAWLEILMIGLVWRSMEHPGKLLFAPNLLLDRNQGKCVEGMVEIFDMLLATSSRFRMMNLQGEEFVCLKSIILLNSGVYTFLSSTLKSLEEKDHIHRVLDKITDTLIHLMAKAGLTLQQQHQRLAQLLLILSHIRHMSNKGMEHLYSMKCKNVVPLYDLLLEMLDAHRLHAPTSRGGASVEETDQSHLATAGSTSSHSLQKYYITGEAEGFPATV
In words: ERα reporter (luciferase) transactivation assay in transfected HEK293 cells. The assay is classed as cell-based. Also noted: expressed in transfected cells; host or cells: HEK293. The note with it: sample concentration 10 μM, 24 hours, mean of at least three independent transfections. The method, then: as §1, §2

Here are results for 26 molecules from patent US20100267784A1, “NOVEL 4,5-DIHYDROISOXAZOLES WITH ESTROGENIC ACTIVITY” (priority 2007, published 2010).

ERβ, sequence (Q92731 whole entry): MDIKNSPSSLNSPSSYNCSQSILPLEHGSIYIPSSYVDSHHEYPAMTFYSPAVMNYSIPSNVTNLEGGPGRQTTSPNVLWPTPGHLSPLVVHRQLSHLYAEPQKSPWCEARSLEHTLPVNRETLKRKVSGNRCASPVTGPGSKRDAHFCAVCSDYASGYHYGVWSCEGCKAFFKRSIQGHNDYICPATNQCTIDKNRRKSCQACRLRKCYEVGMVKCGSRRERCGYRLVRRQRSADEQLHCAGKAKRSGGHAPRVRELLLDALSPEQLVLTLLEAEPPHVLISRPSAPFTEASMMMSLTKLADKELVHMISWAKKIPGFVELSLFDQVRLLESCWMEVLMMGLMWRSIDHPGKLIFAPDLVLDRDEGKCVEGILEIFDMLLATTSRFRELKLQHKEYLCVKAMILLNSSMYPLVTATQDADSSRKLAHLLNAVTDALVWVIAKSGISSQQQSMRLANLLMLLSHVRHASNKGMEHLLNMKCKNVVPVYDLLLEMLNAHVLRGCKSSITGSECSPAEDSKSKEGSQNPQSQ

Consider `Oc1ccc(CCCC2=NOC(c3cccc(O)c3)C2)cc1` (single isomer, unassigned) [89b, 3-[3-(4-Hydroxy-phenyl)-propyl]-5-(3-hydroxy-phenyl)-4,5-dihydro-isoxazole], for which the “ERβ receptor activation relative to 10 nM E2 corresponding 100” value at ERβ came out at 7.2%. For the same molecule, the “ERα receptor activation relative to 10 nM E2 corresponding 100” value on ERα is reported as 27.6%.

For `c1ccc(CCC2CC(c3ccccc3)=NO2)cc1` (single isomer, unassigned) [111b, 5-Phenethyl-3-phenyl-4,5-dihydroisoxazole], the “ERβ receptor activation relative to 10 nM E2 corresponding 100” value at ERβ is −6.0%. Further, the “ERα receptor activation relative to 10 nM E2 corresponding 100” value at ERα was found to be 1.1%.

On to `Oc1ccc(C2=NOC(Cc3ccccc3)C2)cc1` (single isomer, unassigned) [80a, 5-Benzyl-3-(4-hydroxy-phenyl)-4,5-dihydro-isoxazole], for which the activation at 10 µM on ERβ worked out at 28.5%. The “ERα receptor activation relative to 10 nM E2 corresponding 100” value on ERα is 52.0%.

Regarding `Oc1ccc(CCC2=NOC(Cc3ccc(F)cc3)C2)cc1` (single isomer, unassigned) [98a, 5-(4-Fluoro-benzyl)-3-[2-(4-hydroxy-phenyl)-ethyl]-4,5-dihydro-isoxazole], the “ERβ receptor activation relative to 10 nM E2 corresponding 100” value on ERβ was 28.4%. Also, the “ERα receptor activation relative to 10 nM E2 corresponding 100” value at ERα stood at 77.8%.

In the case of `Oc1cccc(CCC2=NOC(CCc3ccccc3)C2)c1` (single isomer, unassigned) [105a, 3-[2-(3-Hydroxy-phenyl)-ethyl]-5-phenethyl-4,5-dihydro-isoxazole], the activation at 10 µM at ERβ is 2.6%. For the same molecule, at ERα, the “ERα receptor activation relative to 10 nM E2 corresponding 100” value worked out at 8.3%.

Consider `c1ccc(CCC2=NOC(CCc3ccccc3)C2)cc1` (single isomer, unassigned) [116a, 3,5-Di-phenethyl-4,5-dihydroisoxazole], for which the “ERβ receptor activation relative to 10 nM E2 corresponding 100” value on ERβ came to 0.2%. The “ERα receptor activation relative to 10 nM E2 corresponding 100” value on ERα was 3.4%.

`c1ccc(CCCC2=NOC(Cc3ccccc3)C2)cc1` (single isomer, unassigned) [114a, 5-Benzyl-3-(3-phenyl-propyl)-4,5-dihydro-isoxazole]: the “ERβ receptor activation relative to 10 nM E2 corresponding 100” value at ERβ is 13.6%. The “ERα receptor activation relative to 10 nM E2 corresponding 100” value at ERα is given as 31.3%.

For the molecule `Oc1ccc(CCC2=NOC(Cc3ccc(F)cc3)C2)cc1` (single isomer, unassigned) [98b, 5-(4-Fluoro-benzyl)-3-[2-(4-hydroxy-phenyl)-ethyl]-4,5-dihydro-isoxazole], at ERβ, the “ERβ receptor activation relative to 10 nM E2 corresponding 100” value was found to be 4.4%. Also, the “ERα receptor activation relative to 10 nM E2 corresponding 100” value at ERα amounted to 5.7%.

Regarding `Oc1ccc(CC2CC(CCc3ccccc3O)=NO2)cc1` (single isomer, unassigned) [95b, 5-(4-Hydroxy-benzyl)-3-[2-(2-hydroxy-phenyl)-ethyl]-4,5-dihydro-isoxazole], the “ERβ receptor activation relative to 10 nM E2 corresponding 100” value at ERβ is recorded as 0.6%. Besides, the “ERα receptor activation relative to 10 nM E2 corresponding 100” value at ERα worked out at 6.2%.

For `c1ccc(CCC2=NOC(Cc3cccc4ccccc34)C2)cc1` (single isomer, unassigned) [67b, 5-naphthalen-1-yl-methyl-3-phenethyl-4,5-dihydroisoxazole], the “ERβ receptor activation relative to 10 nM E2 corresponding 100” value on ERβ was determined as 6.5%. The “ERα receptor activation relative to 10 nM E2 corresponding 100” value at ERα is on record as 17.2%.

For `Oc1cccc(CCC2=NOC(CCc3ccccc3)C2)c1` (single isomer, unassigned) [105b, 3-[2-(3-Hydroxy-phenyl)-ethyl]-5-phenethyl-4,5-dihydro-isoxazole], the “ERβ receptor activation relative to 10 nM E2 corresponding 100” value at ERβ is 3.6%. On ERα, the “ERα receptor activation relative to 10 nM E2 corresponding 100” value is 3.0%.

Consider `Oc1ccc(CCC2=NOC(CCc3ccccc3)C2)cc1` (single isomer, unassigned) [106a, 3-[2-(4-Hydroxy-phenyl)-ethyl]-5-phenethyl-4,5-dihydro-isoxazole], for which, on ERβ, the “ERβ receptor activation relative to 10 nM E2 corresponding 100” value is on record as 15.4%. Also, at ERα, the “ERα receptor activation relative to 10 nM E2 corresponding 100” value came to 62.8%.

Consider `CC1(c2ccccc2)CC(CCCc2ccccc2)=NO1` (stereo not shown) [115ab, 5-Methyl-5-phenyl-3-(3-phenyl-propyl)-4,5-dihydro-isoxazole], for which, at ERβ, the activation at 10 µM came to 15.5%. Further, the “ERα receptor activation relative to 10 nM E2 corresponding 100” value on ERα is listed as 69.5%.

On to `c1ccc(CC2CC(c3ccccc3)=NO2)cc1` (single isomer, unassigned) [107a, 5-Benzyl-3-phenyl-4,5-dihydroisoxazole], for which, at ERβ, the activation at 10 µM is 6.6%. In addition, the “ERα receptor activation relative to 10 nM E2 corresponding 100” value on ERα is reported as −1.0%.

Take `Oc1ccc(CC2=NOC(c3cccc(O)c3)C2)cc1` (single isomer, unassigned) [83a, 3-(4-Hydroxy-benzyl)-5-(3-hydroxy-phenyl)-4,5-dihydro-isoxazole]: on ERβ, the activation at 10 µM came to 33.2%. In addition, on ERα, the “ERα receptor activation relative to 10 nM E2 corresponding 100” value was 30.8%.

Regarding `Oc1ccc(CC2CC(CCc3ccccc3O)=NO2)cc1` (single isomer, unassigned) [95a, 5-(4-Hydroxy-benzyl)-3-[2-(2-hydroxy-phenyl)-ethyl]-4,5-dihydro-isoxazole], the “ERβ receptor activation relative to 10 nM E2 corresponding 100” value on ERβ turned out to be 2.4%. Besides, the “ERα receptor activation relative to 10 nM E2 corresponding 100” value at ERα was determined as 20.4%.

As for `c1ccc(CCC2=NOC(Cc3ccccc3)C2)cc1` (single isomer, unassigned) [109a, 5-Benzyl-3-phenethyl-4,5-dihydroisoxazole], the activation at 10 µM at ERβ came out at 1.1%. Also, the “ERα receptor activation relative to 10 nM E2 corresponding 100” value on ERα turned out to be 68.4%.

Regarding `COc1ccc(CCCC2=NOC(c3ccccc3)C2)cc1` (single isomer, unassigned) [72b, 3-[3-(4-Methoxy-phenyl)-propyl]-5-phenyl-4,5-dihydroisoxazole], the “ERβ receptor activation relative to 10 nM E2 corresponding 100” value at ERβ is listed as −9.0%. In addition, the “ERα receptor activation relative to 10 nM E2 corresponding 100” value at ERα was found to be 1.2%.

As to `COc1ccc(CC2CC(CCc3ccccc3)=NO2)cc1` (single isomer, unassigned) [65a, 5-(4-Methoxybenzyl)-3-phenethyl-4,5-dihydroisoxazole], the “ERβ receptor activation relative to 10 nM E2 corresponding 100” value on ERβ was determined as 10.6%. Also, the “ERα receptor activation relative to 10 nM E2 corresponding 100” value on ERα was 0.8%.

As to `Fc1ccc(CC2CC(CCc3ccccc3)=NO2)cc1` (single isomer, unassigned) [66a, 5-(4-fluorobenzyl)-3-phenethyl-4,5-dihydroisoxazole], the activation at 10 µM at ERβ stood at 11.2%. For the same molecule, the “ERα receptor activation relative to 10 nM E2 corresponding 100” value at ERα is 99.2%.

On to `c1ccc(CC2=NOC(c3ccccc3)C2)cc1` (stereo not shown) [112ab, 3-Benzyl-5-phenyl-4,5-dihydroisoxazole], for which the activation at 10 µM on ERβ came to 34.4%. Further, at ERα, the “ERα receptor activation relative to 10 nM E2 corresponding 100” value amounted to 19.6%.

Consider `c1ccc(CCCC2=NOC(Cc3ccccc3)C2)cc1` (single isomer, unassigned) [114b, 5-Benzyl-3-(3-phenyl-propyl)-4,5-dihydro-isoxazole], for which the “ERβ receptor activation relative to 10 nM E2 corresponding 100” value at ERβ is recorded as 5.1%. In addition, at ERα, the “ERα receptor activation relative to 10 nM E2 corresponding 100” value was found to be 28.1%.

As to `c1ccc(CCC2=NOC(Cc3ccccc3)C2)cc1` (single isomer, unassigned) [109b, 5-Benzyl-3-phenethyl-4,5-dihydroisoxazole], on ERβ, the “ERβ receptor activation relative to 10 nM E2 corresponding 100” value is 1.3%. Besides, the “ERα receptor activation relative to 10 nM E2 corresponding 100” value on ERα was 38.2%.

In the case of `Oc1ccc(CC2CC(CCCc3ccc(O)c(O)c3)=NO2)cc1` (single isomer, unassigned) [103a, 3-[3-(3,4-Dihydroxy-phenyl)-propyl]-5-(4-hydroxy-benzyl)-4,5-dihydro-isoxazole], the “ERβ receptor activation relative to 10 nM E2 corresponding 100” value on ERβ is listed as −1.1%. The “ERα receptor activation relative to 10 nM E2 corresponding 100” value on ERα was found to be 1.7%.

As for `Oc1ccc(CC2CC(CCc3ccccc3)=NO2)cc1` (single isomer, unassigned) [94a, 5-(4-Hydroxy-benzyl)-3-phenethyl-4,5-dihydro-isoxazole], the “ERβ receptor activation relative to 10 nM E2 corresponding 100” value on ERβ came to 9.1%. In addition, the “ERα receptor activation relative to 10 nM E2 corresponding 100” value on ERα is listed as 34.2%.

As for `Oc1ccccc1CCC1=NOC(CCc2ccccc2)C1` (single isomer, unassigned) [104b, 3[2-(2-Hydroxy-phenyl)-ethyl]-5-phenethyl-4,5-dihydro-isoxazole], the “ERβ receptor activation relative to 10 nM E2 corresponding 100” value on ERβ is listed as 2.6%. Also, the “ERα receptor activation relative to 10 nM E2 corresponding 100” value at ERα is recorded as 21.8%.
